Assay: in vitro
Settings: human, hela cells, % viability
For `COCCNc1cc(-c2cccc(F)c2C(N)=O)c2cc[nH]c2n1` [CBK307682], the viability at 28.5 h, 10 µM was 94.2%. `O=S(=O)(NC1CCCCC1n1cc(-c2ccccc2)nn1)c1ccc(Cl)cc1` (stereo not shown) [CBK266391] gave a viability at 28.5 h, 10 µM of 99%. In the case of `Cc1ccc(S(=O)(=O)N(CC(=O)Nc2ccccc2C(=O)O)c2ccccc2)cc1` [CBK264034], the viability at 28.5 h, 10 µM was 94.6%. Work on `COc1ccc(-n2c(=O)c3ccccc3n(CC(=O)NC3CCCC3)c2=O)cc1` [CBK287574] yielded a viability at 28.5 h, 10 µM of 92.2%. With `COc1ccc(S(=O)(=O)NCCN2CCOCC2)cc1Br` [CBK269838] the viability at 28.5 h, 10 µM was 91.4%. With `Cc1nc2c(c(=O)[nH]1)CCN(C(=O)c1oc3ccccc3c1C)C2` [CBK283752] the viability at 28.5 h, 10 µM was 111%. For `O=C(Cc1ccn[nH]1)N1CC(O)CC1c1cc(F)ccc1F` (stereo not shown) [CBK304872], the viability at 28.5 h, 10 µM was 92.3%. `CC1CCCCN1C(=O)Cn1c(C2CCOCC2)cc2cccnc21` (stereo not shown) [CBK284675] showed a viability at 28.5 h, 10 µM of 97.7%. `O=C(c1ccccc1)c1ccccc1OCCO` [CBK000728] gave a viability at 28.5 h, 10 µM of 116%. With `COc1cc(CNc2cccc(-c3ccsc3)n2)cc(OC)c1` [CBK037592] the viability at 28.5 h, 10 µM was 97.8%. In the case of `CN(Cc1ccc(N2CCCCC2)cc1)S(=O)(=O)c1ccsc1C(=O)O` [CBK295333], the viability at 28.5 h, 10 µM was 85.5%. Work on `CCn1c(C(CC(C)C)NC(=O)c2ccco2)nc2cccnc21` (stereo not shown) [CBK283523] yielded a viability at 28.5 h, 10 µM of 94.3%. In the case of `CSCC1CCCN(C(=O)c2cc3ncc(CCO)cn3n2)C1` (stereo not shown) [CBK307256], the viability at 28.5 h, 10 µM was 79.6%. With `CCN1CCCCC1CNC(=O)c1sc(C)nc1C` (stereo not shown) [CBK282206] the viability at 28.5 h, 10 µM was 90.2%. For `CCC1CCCCN1C(=O)c1ccnc(C)c1` (stereo not shown) [CBK081093], the viability at 28.5 h, 10 µM was 91.3%. `OC(CSc1ccccc1)CN1CCN(Cc2ccc3c(c2)OCO3)CC1` (stereo not shown) [CBK074761] gave a viability at 28.5 h, 10 µM of 87.2%. Molecule `NC(=O)c1ccc(-c2cncc(NCc3ccco3)n2)cc1` [CBK065383] has a viability at 28.5 h, 10 µM of 85.6%. For `COc1ccc(C)cc1S(=O)(=O)NCCO` [CBK267881], the viability at 28.5 h, 10 µM was 98.4%. For `O=c1[nH]c(=O)n([C@@H]2O[C@H](CO)[C@H](O)C2O)cc1Br` (stereo partly shown) [CBK201180], the viability at 28.5 h, 10 µM was 87.2%. With `OCC1CCCN1c1cncc(-c2ccc3c(c2)OCO3)n1` (stereo not shown) [CBK065908] the viability at 28.5 h, 10 µM was 100%. Work on `O=C1CC(C(=O)O)CN(c2cccs2)C1` (stereo not shown) [CBK021796] yielded a viability at 28.5 h, 10 µM of 92.8%. Molecule `O=C(NCc1cccs1)c1ccc(N2CCN(C(=O)c3ccccc3C(F)(F)F)CC2)nn1` [CBK153218] has a viability at 28.5 h, 10 µM of 87.6%. `COc1ccc(C(=S)NCCCCCC(=O)O)cc1` [CBK288523] gave a viability at 28.5 h, 10 µM of 87.1%. In the case of `Cc1cc2c(s1)c1cnn(Cc3ccncc3)c(=O)c1n2C` [CBK284188], the viability at 28.5 h, 10 µM was 86.4%. With `O=C(O)c1cccc(C(=O)c2cccc(C(=O)O)c2)c1` [CBK263933] the viability at 28.5 h, 10 µM was 99.1%. In the case of `Cc1nn(C)c(Cl)c1S(=O)(=O)N1CCN(C)CC1` [CBK062426], the viability at 28.5 h, 10 µM was 106%. `CC(=O)N1C[C@@H]2OCC(=O)N(Cc3ccccn3)[C@@H]2C1` [CBK289245] showed a viability at 28.5 h, 10 µM of 95.8%. Work on `CSc1nn(C)c(=O)c2c3c(sc12)CCC3` [CBK019796] yielded a viability at 28.5 h, 10 µM of 83.7%. `Cc1cccc(N(CC(O)CN2C(=O)NC(C)(C)C2=O)S(=O)(=O)c2ccccc2)c1` (stereo not shown) [CBK263582] gave a viability at 28.5 h, 10 µM of 103%. For `Cc1cccn2c(CN3CCC(O)CC3)c(C(=O)N3CCOCC3)nc12` [CBK306546], the viability at 28.5 h, 10 µM was 104%. `COc1cc(F)cc(OC2CCNCC2)c1NC(=O)c1cnccn1` [CBK050296T] showed a viability at 28.5 h, 10 µM of 90.3%. `CC(=O)c1cnc2cc(-c3ccc(Cl)cc3)nn2c1C` [CBK051484] gave a viability at 28.5 h, 10 µM of 107%. `CS(=O)(=O)Nc1cc(-c2noc([C@@H]3CCCN3C3CCC3)n2)ccn1` [CBK288889] showed a viability at 28.5 h, 10 µM of 112%. In the case of `Cc1ccc(S(=O)(=O)NC(C)(C)C)cc1C(=O)N(C)Cc1cnn(C)c1` [CBK305433], the viability at 28.5 h, 10 µM was 86.9%. Molecule `CN1CCCN(c2nccnc2-c2ccccc2CO)CC1` [CBK038014] has a viability at 28.5 h, 10 µM of 106%. Work on `COCCn1ccnc1C1CCN(C(=O)Cc2ccc(O)c(F)c2)CC1` [CBK306649] yielded a viability at 28.5 h, 10 µM of 82.6%. In the case of `COc1ccc(C(=O)[C@H]2CCCN(C(=O)C3CC3)C2)cc1` [CBK284329], the viability at 28.5 h, 10 µM was 91.4%. `COc1ccc(CCC(=O)Nc2ncn(Cc3cccc(C)c3)n2)cc1` [CBK288227] gave a viability at 28.5 h, 10 µM of 91.7%. Work on `COc1ccc(C2(C(=O)N3CCN(C)CC3)CC2)cc1` [CBK149837] yielded a viability at 28.5 h, 10 µM of 86.3%. Work on `CCN(CC)C(=O)c1ccc(N)cc1C` [CBK022686C] yielded a viability at 28.5 h, 10 µM of 93.5%. Work on `CN1CCN(c2cccc(-c3ccsc3)n2)CC1` [CBK036916] yielded a viability at 28.5 h, 10 µM of 90.2%. Work on `CN1CCN(c2ccc([N+](=O)[O-])c(NCCCO)c2)CC1` [CBK261846C] yielded a viability at 28.5 h, 10 µM of 86.5%. Work on `CN(CC(=O)Nn1cnnc1)S(=O)(=O)c1ccc(Br)cc1` [CBK268597] yielded a viability at 28.5 h, 10 µM of 85.9%. Molecule `O=C(CN1CCn2ccnc2C1)N(Cc1ccccc1F)C1CC1` [CBK303995] has a viability at 28.5 h, 10 µM of 89.6%. With `Cc1cc(C)n(CC(=O)Nc2cccc(CCc3ccncc3)c2)c(=O)n1` [CBK285555] the viability at 28.5 h, 10 µM was 105%.

Same assay, conditions: human, hela cells, % viability, bulk resorufin, single well
With `Nc1ncnc2c1ncn2[C@@H]1O[C@H](CO)[C@H](O)C1O` (stereo partly shown) [CBK201199] the viability at 28.5 h, 10 µM was 95.8%.
